The text below walks through data of patent US7605179B2, “Napthoquinone derivatives as inhibitors of tau aggregation for the treatment of alzheimer's and related neurodegenerative disorders” (Wista Laboratories Ltd., priority 2001, dated 2009).

In data set [1] the test system is cultured CNS neurones. Particulars: cited from earlier work.
The test system of data set [2] is tau-tau binding. The data set is described as follows: In vitro tau-tau binding assay (WO 96/30766). As to the method: FIG. 5 is a schematic representation of the in vitro aggregation assay of WO 96/30766 in which binding of two truncated units is measured. The species terminating at […] (“a”) is first coated on the ELISA plate (in sodium carbonate buffer: 50 mM, pH 9.6). Next, a second truncated tau species terminating at […] (“e”) is incubated in various buffer conditions. […] This is described in detail in WO 96/30766. Briefly, a fragment of tau corresponding to the core repeat domain, which has been adsorbed to a solid phase substrate, is able to capture soluble full-length tau and bind tau with high affinity. This association confers stability against proteolytic digestion of the aggregated tau molecules. The process is self-propagating, and can be blocked selectively by prototype pharmaceutical agents ([…]., et al. (1996), loc. cit). The assay is shown schematically in FIG. 5.

The target in data set [3] is T1, tau-tau aggregation (Homo sapiens, UniProt P10636).
T1 construct: membrane-targeted tau (sstau190-441, “ssK40”); expressed in transfected cells
T1 sequence (P10636 507-758): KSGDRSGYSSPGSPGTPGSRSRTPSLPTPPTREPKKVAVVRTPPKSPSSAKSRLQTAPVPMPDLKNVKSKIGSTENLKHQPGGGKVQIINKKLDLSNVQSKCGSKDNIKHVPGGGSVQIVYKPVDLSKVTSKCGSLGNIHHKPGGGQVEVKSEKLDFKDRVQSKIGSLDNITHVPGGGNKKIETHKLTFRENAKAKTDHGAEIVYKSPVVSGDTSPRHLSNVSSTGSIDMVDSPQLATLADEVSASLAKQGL
As to the kind of experiment: Cell-based assay II ('ssK40/25 kD'), proteolytic processing of tau. The settings on record: concentrations of 1-2 μM. From the text: The process is described in more detail in prior filed unpublished application GB 0100119.7. […] These cleavage sites correspond to the known boundaries of the PHF-core domain, indicate that their generation within the cell depends on PHF-like tau aggregation through an antiparallel phase-shifted alignment of the repeat domain.
This is shown schematically in FIG. 7. When expression of full-length tau (T40) is activated under control of an inducible promoter in cells which constitutively express the membrane-targeted ssK40 fragment, T40 is processed proteolytically to give rise to a K40 fragment (N-terminal truncation at ˜αα 185), a K30 fragment (C-terminal truncation ˜αα 390) and a K25 fragment (N-terminal truncation at ˜αα 295).

The subject of data set [4] is fibroblast cells (3T6). As to the kind of experiment: Toxicity in the T40/12 kD cell assay (lactate dehydrogenase kit). Type of data set: cell-based. Particulars: for LD50: cellular LD50, cell numbers after 24 hrs exposure; for Rxindx: therapeutic index, RxIndx=LD50/B50. Here is the method:
Toxicity of the compounds described above was assessed in the T40/12 kD cell assay used to assess activity. Toxicity was measured by cell numbers after 24 hrs exposure to the compound using a lactate dehydrogenase assay kit TOX-7(Sigma Biosciences) according to the manufacturer's instructions after lysis of remaining cells. Alternatively a kit from Promega UK (CytoTox 96) was used, again according to the manufacturer's instructions.

Data set [5] concerns tau protein. The settings on record: 200 μM; cited from earlier work.
Data set [6] addresses tau-tau binding (Homo sapiens, UniProt P10636). As to the kind of experiment: Cell-based assay I ('T40/12 kD'), production of the 12 kD fragment. Particulars: for Ki: apparent KI calculated from T40/12 kD cell data, assumes intracellular tau 500 nM, tau-tau Kd 22 nM; for IC50: concentration at which production of the 12 kD band from full-length tau is reduced to 50%, read-out: B50; for activity as inhibitor of tau-tau aggregation: T40/12 kD cell assay. As to the method: Production of the 12 kD fragment can be blocked in a dose-dependent manner by tau-aggregation inhibitors. Indeed the quantitation of inhibitory activity of compounds with respect to proteolytic generation of the 12 kD fragment within cells can be described entirely in terms of the same parameters which describe inhibition of tau-tau binding in vitro. That is, extent of proteolytic generation of the 12 kD fragment within cells is determined entirely by the extent to tau-tau binding through the repeat domain. The availability of the relevant proteases within the cell is non-limiting.
The process is described in more detail in prior filed unpublished application GB 0101049.5.
The observed cell data for production of the 12 kD band can be fitted closely (i.e. observed vs. predicted correlation coefficient >0.9), to a standard function describing inhibition of tau-tau binding in vitro. To obtain this fit, two assumptions need to be made, which are consistent with results from other cell-based and in vitro studies: • 1) the intracellular concentration of tau is approximately 500 nM; • 2) the tau-tau binding affinity is 22 nM.
When these assumptions are made, the function: Activity=[tau]([tau]+Kd*(1+[inhibitor]/KI)) can be solved by standard numerical methods to derive a value for apparent KI. Comparison with values observed for tau-tau binding in vitro at a tau concentration of 500 nM, where the Kd value for tau-tau binding is known to be 22 nM confirm that the sole determinant of production of the proteolytically stable core tau unit of the PHF within the cell is simply the extent of tau-tau binding.
A further parameter, B50, has been established in respect of compounds exemplified herein. The B50 value is the determined concentration of test compound used in the cell assay at which relative production of the 12 kD band from full-length tau was reduced to 50% of that observed in the absence of the compound. This provides an indication of the tissue concentration which would be required to achieve the corresponding activity in vivo. In general there is an approximately linear relationship between apparent KI value and B50 value, which can be used to derive the KI value: B50(μM)=0.0217×KI(nM) Cell-based Assay II(‘ssK40/25 kD’)

Data set [7] concerns tau-tau binding. Particulars: WO 96/30766 FIGS. 23 and 24; 1 represents binding equivalent to that in the absence of compound; cited from earlier work.
Data set [8] addresses tau-tubulin binding (Homo sapiens, UniProt P10636). The data set is described as follows: In vitro tau-tubulin binding. Particulars: at concentrations up to 500 μM (2500:1 molar ratio with respect to tau).

tau-tau binding (Homo sapiens, UniProt P10636), sequence (P10636 1-441 isoform P10636-8): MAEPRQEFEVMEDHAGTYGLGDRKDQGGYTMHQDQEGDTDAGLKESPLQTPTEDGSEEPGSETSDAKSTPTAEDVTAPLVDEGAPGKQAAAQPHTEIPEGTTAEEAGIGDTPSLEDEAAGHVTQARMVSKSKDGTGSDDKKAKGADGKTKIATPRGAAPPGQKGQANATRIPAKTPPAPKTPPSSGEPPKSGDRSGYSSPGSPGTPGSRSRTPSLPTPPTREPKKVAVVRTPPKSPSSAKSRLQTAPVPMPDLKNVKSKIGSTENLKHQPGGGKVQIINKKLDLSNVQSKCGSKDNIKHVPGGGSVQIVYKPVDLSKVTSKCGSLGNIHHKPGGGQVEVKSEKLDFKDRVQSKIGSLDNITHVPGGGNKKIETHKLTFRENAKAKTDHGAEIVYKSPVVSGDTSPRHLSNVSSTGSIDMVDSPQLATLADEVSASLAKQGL
tau-tubulin binding, sequence (P10636 whole entry): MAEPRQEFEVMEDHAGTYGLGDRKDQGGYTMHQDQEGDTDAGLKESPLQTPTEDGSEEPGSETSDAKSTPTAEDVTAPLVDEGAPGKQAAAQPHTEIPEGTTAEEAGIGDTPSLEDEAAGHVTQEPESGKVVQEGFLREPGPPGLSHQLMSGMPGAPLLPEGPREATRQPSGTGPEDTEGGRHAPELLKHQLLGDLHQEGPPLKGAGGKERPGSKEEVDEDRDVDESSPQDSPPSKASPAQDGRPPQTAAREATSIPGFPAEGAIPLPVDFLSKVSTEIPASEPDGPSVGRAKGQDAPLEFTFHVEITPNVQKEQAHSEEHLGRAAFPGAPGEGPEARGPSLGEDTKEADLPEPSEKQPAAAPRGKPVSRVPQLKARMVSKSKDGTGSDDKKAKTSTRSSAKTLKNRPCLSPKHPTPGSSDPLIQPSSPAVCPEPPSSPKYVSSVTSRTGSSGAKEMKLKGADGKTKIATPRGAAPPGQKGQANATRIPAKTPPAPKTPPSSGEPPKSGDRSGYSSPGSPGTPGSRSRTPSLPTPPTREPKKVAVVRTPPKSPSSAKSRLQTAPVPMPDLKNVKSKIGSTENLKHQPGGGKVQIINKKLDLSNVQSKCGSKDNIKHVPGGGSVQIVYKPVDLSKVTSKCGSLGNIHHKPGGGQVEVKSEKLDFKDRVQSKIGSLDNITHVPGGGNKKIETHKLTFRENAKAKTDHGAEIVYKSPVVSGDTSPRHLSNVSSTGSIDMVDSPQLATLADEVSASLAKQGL

As to `CC1=C(C/C=C(\C)CCC[C@H](C)CCC[C@H](C)CCCC(C)C)C(=O)c2ccccc2C1=O` [Compound K1, 2-methyl-3-phytyl-1,4-naphthoquinone], in data set [1] (in the range 10 nM—1 μM), the survival promoting effects entry was “prominent survival promoting effects”.
On to `CC1=CC(=O)c2ccccc2C1=O` [Compound K3, 2-methyl-1,4-naphthoquinone], for which the “activity in the in vitro assay” value in data set [2] was “did not show activity”. Further, in data set [3], the “conversion K40→K25 relative to that seen without K3” value is “about ½” and the “conversion of T40→K25 relative to that seen without K3” value was “about ¼”. Also, in data set [3] (inferred), the “conversion of T40→K40 relative to that seen without K3” value is “about ½”. In data set [4], the “LD50” value came out at 44.92 µM and the Rxindx was determined as 16.17. Also, the “effect on tau protein phosphorylation” value in data set [5] is listed as “prominent dephosphorylation of tau protein”. Further, the “survival promoting activity relative to vitamins K1 and K2” value in data set [1] (only at 1 μM) was around 10%. Further, in data set [6], the Ki was 128 nM and the IC50 is 2.78 µM. For the same molecule, the “ranking value of inhibitory properties” value in data set [7] was 1.042.
For the molecule `CC(C)=CCC1=C(O)C(=O)c2ccccc2C1=O` [DH1], in data set [4], the “LD50” value came to 100.97 µM and the Rxindx worked out at 9.07. Moreover, in data set [6], the “activity as inhibitor of tau-tau aggregation” value (from here on “activity as inhibitor”) is given as “weak activity”, the Ki was 513 nM and the IC50 stood at 11.1 µM.
Regarding `O=C(O)c1cc(O)c2ccccc2c1O` [DH5], in data set [4], the “LD50” value turned out to be 34.29 µM and the Rxindx is listed as 13.39. In data set [6], the “activity as inhibitor” value is “had activity”, the Ki is 118 nM and the IC50 was found to be 2.56 µM.
On to `CC(=O)Oc1cc(C)c(OC(C)=O)c2ccccc12` [DH9], for which, in data set [4], the “LD50” value was 13.09 µM and the Rxindx is 4.75. Also, in data set [6], the “activity as inhibitor” value is “highly active”, the Ki is 127 nM and the IC50 was found to be 2.76 µM.
As for `CC1=C(C)C(=O)c2ccccc2C1=O` [DH10, 2,3-dimethyl-1,4-naphthoquinone], in data set [4], the “LD50” value worked out at 66.71 µM and the Rxindx is on record as 13.91. Further, in data set [6], the Ki was 221 nM and the IC50 was 4.8 µM.
With `CC(=O)Oc1c(C)c(C)c(OC(C)=O)c2ccccc12` [DH11], in data set [4], the “LD50” value was 12.13 µM and the Rxindx worked out at 0.83. Moreover, in data set [6], the “activity as inhibitor” value is listed as “reduced activity”, the Ki is 674 nM and the IC50 worked out at 14.6 µM.
Turning to `Cc1cc(OS(=O)(=O)O)c2ccccc2c1OS(=O)(=O)O` [DH13], in data set [4], the “LD50” value was found to be 30.90 µM and the Rxindx is 5.41. For the same molecule, in data set [6], the “activity as inhibitor” value is given as “intermediate in activity”, the Ki was 263 nM and the IC50 turned out to be 5.71 µM.
As to menaquinone [Compound K2], the Ki in data set [2] (for values less than 100 μM, read-out: apparent KI value in vitro) is 942 nM. The “inhibition of tau-tubulin binding in vitro” value in data set [8] is given as “does not inhibit”. Moreover, the “ranking value of inhibitory properties” value in data set [7] is 0.674.
